This is an account of results in publication PMC8009417, “Selective killing of homologous recombination-deficient cancer cell lines by inhibitors of the RPA:RAD52 protein-protein interaction” (PLoS ONE, 2021).

Assay [1] concerns homologous recombination (HR) in U2OS-DR cells. The assay is described as follows: Cell-based DSB repair assay, HR (DR-GFP reporter, FACS). The conditions noted are these: 4 nM, 2 h pre-treatment, three days. On the procedure:
(§1) (A) The effect of mitoxantrone (MX) on SSA and HR were studied with cell-based DSB repair assays. U2OS-SA and U2OS-DR cells were pre-treated with mitoxantrone for two hours before transfection of the SceI-expression plasmid. Then cells were grown in the presence of mitoxantrone for three days. DSB repair activities were determined by (B) FACS analysis. […] U2OS-SA cells were pre-treated with indicated concentrations of mitoxantrone for two hours, before I-SceI-expression vector transfection. After 72 hours incubation, the cells were harvested, and lysates were prepared. Lysate from each treatment was analyzed by 12% SDS-PAGE and the expression levels of I-SceI was determined by the western blot using anti-HA antibody. The p70 of RPA was used as a loading control. Ratios of I-SceI to p70 was obtained with ImageJ and are shown at the bottom of the image. C: control experiment without the addition of mitoxantrone. (D, E) Analysis of DSB repair activiies by western blots. […] At least three independent experiments were performed. Error bars represent standard deviations.

In assay [2] the test system is BRCA2-revertant PE01 C4-2 cells (BRCA2+). The assay is described as follows: Cell viability assay (PrestoBlue, 72 h), PE01 C4-2. To be noted: Homo sapiens, C4-2, 72 h, read-out: EC50, cell viability.
The subject of assay [3] is GFP-RAD51 foci in PE01 C4-2 cells. The assay is described as follows: Radiation-induced GFP-RAD51 foci formation. The format is cell-based, human. To be noted: 3 nM pre-treatment, 15 Gy X-ray. On the procedure:
Cells without mitoxantrone and radiation (labeled C) were controls. The average percent of cells with foci (more than 5 foci per cell) are graphed from three independent experiments. More than 30 cells per experiment were analyzed. Error bars represent standard deviation.
Each cell line was seeded on a coverslip at 10^5 cells per well in a 24-well plate. After the 24 hour incubation, the cells were pre-incubated with mitoxantrone for 2 hours, then irradiated with X-ray at 15 Gy with the RS-2000 Irradiator. After 2~ 8 hours of the irradiation, the cells were fixed in 10% formaldehyde solution at room temperature for 30 min, followed by 10 min incubation in PBS containing 0.5% Triton X-100. After staining with 1 μg/ml H1399 Hoechst dye solution, each coverslip was mounted on a slide. GFP proteins were detected with a Zeiss 710 Confocal Laser Scanning Microscope, and images were processed using Zeiss ZEN software. A cell contained more than 5 foci was considered as positive.

Assay [4] concerns UWB1.289 cells corrected with wild-type BRCA1 gene (BRCA1+). The assay is described as follows: Cell viability assay (PrestoBlue, 72 h), UWB1.289+BRCA1. The format is cell-based. The conditions noted are these: Homo sapiens, UWB1289, estimated from the graphs. The source says: BRCA1-deficient UWB1.289 cells corrected with wild-type BRCA1 gene (BRCA1+; closed triangle) and parental BRCA1-deficient UWB1.289 (BRCA1-; closed circle). Two PARPi-resistant cell lines derived from UWB1.289, UWB1.289.SYr12 (closed diamond) and UWB1.SYr13 (X), were also examined.
UWB1.289 (a gift from Dr. Lee Zou, Harvard Medical School, Boston, MA) were derived from a serous ovarian carcinoma with a germline BRCA1 mutation and a deletion of the wild-type allele. […] Two PARP-resistant cell lines, SYr12 and SYr13, were derived from the UWB1.289. The Mammary Epithelial growth media, along with SupplementMix solution for UWB1 cell lines, were obtained from PromoCell GmbH and mixed as described.
(§2) Cells were seeded 5 x 10^3 cells per well in 96-well plates in a 90 μL volume per well one day before treatment. Cells in 96-well plates were incubated with increasing concentrations of the compound or vehicle control (1% DMSO) for 72 hours. Each treatment plate contained nine concentrations of a compound in sextuplicate. Growth inhibition was determined using PrestoBlue reagent (Life Technologies, #A13261). Fluorescent measurements were taken using a Spectramax M5 plate reader (MDS). To assess cells’ replication in the absence of compounds as a control, six wells on each plate were treated with vehicle to be read in triplicate at the initial treatment day (T0) and at 72-hour read (T100).

Assay [5] has as its system single-strand annealing (SSA) in U2OS-SA cells. The assay is described as follows: Cell-based DSB repair assay, SSA (SA-GFP reporter, FACS). To be noted: 4 nM, 2 h pre-treatment, three days. On the procedure:
as §1

Assay [6] has as its system HCC1937 cells corrected with wild-type BRCA1 gene (BRCA1+). The assay is described as follows: Cell viability assay (PrestoBlue, 72 h), HCC1937+BRCA1. The format is cell-based. To be noted: Homo sapiens, estimated from the graphs. Here is the method:
Fig 2 BRCA1-deficient HCC1937 breast cancer cell line survival assay. BRCA1-deficient HCC1937 cells corrected with wild-type BRCA1 gene (BRCA1+; closed triangle), and with an empty vector (BRCA1-; closed circle) were examined. For each experiment (Figs 2–4), cell lines were treated with nine concentrations of (A) quinacrine, (B) mitoxantrone, and (C) doxorubicin in 96-well culture plates at 5x10^3 cell/well density. Each treatment point was made in sextuplicate. Treated cells were incubated for 72 hours at 37°C before assessing cell viability using PrestoBlue. Data were normalized to vehicle control. The experiment was repeated three times. Error bars indicate the standard deviation.
The HCC1937 cell line (a gift from Dr. Simon Powell Memorial Sloan Kettering (MSK), New York) was derived from a mammary gland primary ductal carcinoma at the early onset of a tumor. This TNBC patient carried a germline mutation in BRCA1, resulting in carboxy-terminal truncated protein and loss of the second BRCA1 allele. BRCA1-restored and empty vector cell lines were also obtained by transfection of a vector containing a full-length human BRCA1 cDNA or an empty vector, respectively. The HCC1937 cell lines were cultured as described.
as §2

In assay [7] the test system is T1, RPA:RAD52 PPI in U2OS cells.
T1 construct: endogenous in cells; host or cells: U2OS
As to the kind of experiment: Size exclusion chromatography and co-immunoprecipitation of RAD52 with RPA from treated cells. The format is cell-based. The conditions noted are these: 3 nM, 24 hours, preliminary experiments. Here is the method:
(A) RAD52 was co-immunoprecipitated with RPA in the fractions 5, 8, and 10 in the control experiment. The elution positions of the molecular weight standards, thyroglobulin (669 kDa), apoferritin (443 kDa), beta-amylase (200 kDa), and bovine serum albumin (66 kDa), are indicated below the western blot.
U2OS cells (10^6 cells) were seeded in a 100 mm dish and grown overnight. The cells were treated with the indicated concentrations of mitoxantrone (MTX) for 24 hours. The cell lysate was prepared in 100 μl of lysis buffer (PBS with 0.5% NP40, 0.5% Triton X100, 1 mM DTT, protease and phosphatase inhibitors, and 10% glycerol). After mixing with 100 μl cold PBS, the lysate was incubated with 100 μl of DEAE sepharose (GE Life Sciences) for 2 hours at 4°C with rotation. An unbound fraction from DEAE sepharose (~200 μl) was diluted with 200 μl of PBS and half of the mixture was fractionated with Superdex200 (GE Life Sciences) using PBS as elution buffer. Each fraction was incubated with anti-RPA (p32) antibody conjugated with biotin (NeoMarkers, MS-691-B0) at 4°C overnight, then incubated with Streptavidin-magnetic beads (Promega #Z5481) for one hour at 4°C with rotation. […] RAD52 and RPA (p32) were detected by western blotting with anti-RAD52 antibody (LS-C42570, LSBio) and anti-RPA2 antibody (A300-244A, Bethyl Laboratories), respectively.
In general terms: SEC sorts molecules by how far they enter the pores of the column.

The structures appear in SMILES notation. pEC50: −log10 of the molar value.

Usually pEC50 stands for the EC50 on a negative log10 scale, so that one unit is a factor of ten. For orientation: inhibition means the change of the read-out against control, counted positive when it falls. In the case of `O=C1c2c(O)ccc(O)c2C(=O)c2c(NCCNCCO)ccc(NCCNCCO)c21` [Mitoxantrone, mitoxantrone], the HR suppression in assay [1] is given as 40% ± 7%. The values for the pEC50 in assay [2], in assay [4] and in assay [6] were 6.40, 5.52 and below 5.30, respectively. For the same molecule, the “Effect on radiation-induced RAD51 foci formation” value in assay [3] is on record as “did not suppress the radiation-induced RAD51 foci formation”. In assay [5], the inhibition at 0.004 µM is 72%. In assay [7], the “Effect on RPA:RAD52 PPI in cells (co-immunoprecipitation of RAD52 with RPA)” value is “disrupts the RPA:RAD52 PPI in cells”.
